Source: patent US20260176289A1, “SMALL MOLECULE INHIBITORS OF KRAS PROTEINS” (Merck Sharp & Dohme LLC, priority 2022, published 2026)
pIC50: −log10 of the molar value. Like-named read-outs stand apart in the source and are kept apart here.

How the values were obtained:
[1] = target: KRAS-G12V (Homo sapiens, UniProt P01116, G12V); assay: SOS-catalyzed nucleotide exchange assay (Procedure A, TR-FRET), KRAS-G12V; format: biochemical; settings: nucleotide exchange, read-out: KRAS G12V GNE IC50
Method in brief: (§1)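 TR-FRET readout (520/495 nm) of SOS-driven exchange of Bodipy-GDP for unlabeled GTP (3 mM) on biotinylated, Tb-streptavidin-bound RAS, after 60 min compound preincubation at room temperature. Exchange times and RAS/SOS levels: 60 min for WT (1/40 nM), G12C triple mutant (3/40 nM), NRAS (1.25/40 nM); 90 min for G12V (1.25/160 nM). Four-parameter logistic fits on normalized effect.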

[2] = tested on: AsPC-1 cells; assay: Cellular phospho-ERK assay, AsPC-1 cells (homozygous KRAS-G12D); format: cell-based; settings: Homo sapiens, ASPC1, 2 h, read-out: AsPC1 pERK IC50
Method in brief: (§2)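 Overnight-plated cells on collagen received test compound (up to 30 μM final, threefold steps, ten concentrations) for two hours. After lysis at room temperature, phosphorylated and total ERK were quantified together by Alpha SureFire, and IC50 is based on the phospho-to-total signal ratio.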

[3] = target: KRAS-G12D (Homo sapiens, UniProt P01116, G12D); assay: SOS-catalyzed nucleotide exchange assay (Procedure A, TR-FRET), KRAS-G12D; format: biochemical; settings: nucleotide exchange, read-out: KRAS G12D GNE IC50
Method in brief: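 Signal ratio (520/495 nm, excitation 340 nm) reports Bodipy-GDP retention on biotinylated RAS after SOS-catalyzed exchange with 3 mM GTP. SOS was 40 nM, except 160 nM for G12V. Room-temperature exchange lasted 60 min (90 min for G12V), following a 60 min compound preincubation.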

[4] = tested on: SW620 cells; assay: Cellular phospho-ERK assay, SW620 cells (homozygous KRAS-G12V); format: cell-based; settings: Homo sapiens, read-out: SW620 pERK IC50
Method in brief: as §2

[5] = tested on: MKN-1 cells; assay: Cellular phospho-ERK assay, MKN-1 cells (amplified wild-type KRAS); format: cell-based; settings: Homo sapiens, read-out: MKN1 pERK IC50
Method in brief: as §2

[6] = target: KRAS-WT (Homo sapiens, UniProt P01116); assay: SOS-catalyzed nucleotide exchange assay (Procedure A, TR-FRET), KRAS-WT; format: biochemical; settings: nucleotide exchange, read-out: KRAS WT GNE IC50
Method in brief: as §1

[7] = amplified wild-type KRAS, 2 hours
[8] = SW-620, 2 hours compound incubation

Chain of KRAS-G12V (P01116 with tags, fused parts or gaps isoform P01116-2 G12V): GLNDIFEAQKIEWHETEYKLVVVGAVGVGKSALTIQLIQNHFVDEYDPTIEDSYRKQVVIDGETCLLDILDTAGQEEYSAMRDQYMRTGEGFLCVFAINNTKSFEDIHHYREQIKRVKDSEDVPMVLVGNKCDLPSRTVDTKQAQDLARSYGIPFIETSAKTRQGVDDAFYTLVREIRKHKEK
Chain of KRAS-WT (P01116 with tags, fused parts or gaps isoform P01116-2): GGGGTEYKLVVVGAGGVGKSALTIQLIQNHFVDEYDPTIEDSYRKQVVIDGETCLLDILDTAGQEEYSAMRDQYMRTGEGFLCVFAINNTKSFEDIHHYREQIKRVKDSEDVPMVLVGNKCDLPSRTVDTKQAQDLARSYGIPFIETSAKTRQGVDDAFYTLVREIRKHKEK
Chain of KRAS-G12D (P01116 with tags, fused parts or gaps isoform P01116-2 G12D): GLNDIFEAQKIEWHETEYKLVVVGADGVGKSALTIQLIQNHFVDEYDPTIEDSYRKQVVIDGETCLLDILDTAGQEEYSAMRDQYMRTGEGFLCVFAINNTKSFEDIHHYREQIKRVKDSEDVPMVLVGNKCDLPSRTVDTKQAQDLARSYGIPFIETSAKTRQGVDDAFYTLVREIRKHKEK

Row | Compound | pIC50 [1] | pIC50 ([2]; KRAS-G12D, 2 hours) | pIC50 [3] | pIC50 ([4]; SW-620, KRAS-G12V, 2 hours) | pIC50 [5, 7] | pIC50 [6] | pIC50 ([2]; 2 hours compound incubation) | pIC50 [4, 8] | pIC50 ([5]; 2 hours compound incubation)
1 | C[C@@]1(O)COCCN(c2nc(OC[C@@]34CCCN3C[C@H](F)C4)nc3sc4c(-c5c(C6=CCC6)c(Cl)cc6[nH]ncc56)nccc4c23)C1 [Ex-70, (6S)-4-(8-(6-chloro-5-(cyclobut-1-en-1-yl)-1H-indazol-4-yl)-2-(((2R,7aS)-2-fluorotetrahydro-1H-pyrrolizin-7a(5H)-yl)methoxy)pyrido[4′,3′:4,5]thi-eno[2,3-d]pyrimidin-4-yl)-6-methyl-1,4-oxazepan-6-ol] | 7.71 | 7.02 | 8.19 | 7.53 | 7.21 | 7.47 | – | – | –
2 | Cc1cc2[nH]ncc2c(-c2nccc3c2sc2nc(OC[C@@]45CCCN4C[C@H](F)C5)nc(N4CCOC[C@@](C)(O)C4)c23)c1-c1ccc(F)o1 [Ex-72, (6S)-4-(8-(5-(5-fluorofuran-2-yl)-6-methyl-1H-indazol-4-yl)-2-(((2R,7aS)-2-fluorotetrahydro-1H-pyrrolizin-7a(5H)-yl)methoxy)pyrido[4′,3′:4,5]thi-eno[2,3-d]pyrimidin-4-yl)-6-methyl-1,4-oxazepan-6-ol] | 7.45 | 6.86 | 7.82 | 7.27 | 7.08 | 7.27 | – | – | –
3 | C[C@@]1(O)COCCN(c2nc(OC[C@@]34CCCN3C[C@]3(CC3(F)F)C4)nc3sc4c(-c5c(C6CC6)c(Cl)cc6[nH]ncc56)nccc4c23)C1 [Ex-212, (6S)-4-(8-(6-chloro-5-cyclopropyl-1H-indazol-4-yl)-2-(((1R,7a'S)-2,2-difluorodihydro-1′H,3′H-spiro[cyclo-propane-1,2′-pyrrol-izin]-7a′(5′H)-yl)-methoxy)pyrido [4′,3′:4,5]thieno[2,3-d]pyrimidin-4-yl)-6-methyl-1,4-oxaze-pan-6-ol] | 7.40 | – | 8.32 | – | – | 7.75 | 7.17 | 7.25 | 7.05
4 | CN(C)C1COC2C[C@@]21COc1nc(N2CCOC[C@@](C)(O)C2)c2c(n1)sc1c(-c3c(C4(F)CC4)c(Cl)cc4[nH]ncc34)nccc12 (stereo partly drawn) [Ex-269, (6S)-4-(8-(6-chloro-5-(1-fluorocyclopropyl)-1H-indazol-4-yl)-2-((4-(dimethylamino)-2-oxabicyclo[3.1.0]hexan-5-yl)methoxy)pyri-do[4′,3′:4,5]thi-eno[2,3-d]pyrimidin-4-yl)-6-methyl-1,4-oxazepan-6-ol] | 7.70 | – | 8.09 | – | – | 7.60 | 6.74 | 7.07 | 7.05
5 | C#C[C@@H]1CCCc2cc3[nH]ncc3c(-c3nccc4c3sc3nc(OC[C@@]56CCCN5C[C@H](F)C6)nc(N5CCOC[C@@](C)(O)C5)c34)c21 [Ex-175] | 7.18 | – | 7.09 | – | – | 6.73 | 6.07 | 6.56 | 6.49
6 | Cc1cc2[nH]ncc2c(-c2nccc3c2sc2nc(OC[C@@]45CCCN4C[C@H](F)C5)nc(N4CCOCC5(CCCO5)C4)c23)c1C(F)(F)F (stereo partly drawn) [Ex-197, 10-(2-(((2R,7aS)-2-fluoro-tetrahydro-1H-pyrrolizin-7a(5H)-yl)methoxy)-8-(6-methyl-5-(trifluorometh-yl)-1H-indazol-4-yl)pyrido [4′,3′:4,5]thieno[2,3-d]pyrimidin-4-yl)-1,7-dioxa-10-azaspiro[4.6]undecane] | 6.73 | – | 6.70 | – | – | 6.36 | 6.41 | 6.34 | 6.29
7 | CO[C@H]1CN2CCC[C@@]2(COc2nc(N3CCOC[C@@](C)(O)C3)c3c(n2)sc2c(-c4c(C5CC5)c(Cl)cc5[nH]ncc45)nccc23)C1 [Ex-229, (6S)-4-(8-(6-chloro-5-cyclopropyl-1H-indazol-4-yl)-2-(((2R,7aS)-2-meth-oxytetrahydro-1H-pyrrolizin-7a(5H)-yl)methoxy)pyrido [4′,3′:4,5]thieno[2,3-d]pyrimidin-4-yl)-6-methyl-1,4-oxaze-pan-6-ol] | 7.72 | – | 8.18 | – | – | 7.65 | 6.96 | 7.42 | 7.28
8 | Cc1cc2[nH]ncc2c(-c2nccc3c2sc2nc(OC[C@@]45CCCN4C[C@H](F)C5)nc(N4CCOC[C@@](C)(O)C4)c23)c1C1(C)CC1 [Ex-62, (6S)-4-(2-(((2R,7aS)-2-fluorotetrahydro-1H-pyrrolizin-7a(5H)-yl)methoxy)-8-(6-methyl-5-(1-methylcyclopropyl)-1H-indazol-4-yl)pyrido[4′,3′:4,5]thieno [2,3-d]pyrimidin-4-yl)-6-methyl-1,4-oxazepan-6-ol] | 7.66 | 6.76 | 7.53 | 6.88 | 6.60 | 7.27 | – | – | –
9 | C/C=C/c1c(C)cc2[nH]ncc2c1-c1nccc2c1sc1nc(OC[C@@]34CCCN3C[C@H](F)C4)nc(N3CCOC[C@@](C)(O)C3)c12 [Ex-64, (6S)-4-(2-(((2R,7aS)-2-fluorotetrahydro-1H-pyrrolizin-7a(5H)-yl)methoxy)-8-(6-methyl-5-((E)-prop-1-en-1-yl)-1H-indazol-4-yl)pyrido[4′,3′:4,5]thieno [2,3-d]pyrimidin-4-yl)-6-methyl-1,4-oxazepan-6-ol] | 6.79 | 6.31 | 7.00 | 6.53 | 6.41 | 6.60 | – | – | –
10 | C/C=C1\CCCc2cc3[nH]ncc3c(-c3nccc4c3sc3nc(OC[C@@]56CCCN5C[C@H](F)C6)nc(N5CCOC[C@@](C)(O)C5)c34)c21 [Ex-174, (6S)-4-(8-((E)-5-ethyl-idene-5,6,7,8-tetrahydro-1H-benzo[f]indazol-4-yl)-2-(((2R,7aS)-2-fluoro-tetrahydro-1H-pyrrolizin-7a(5H)-yl)methoxy)pyr-ido[4′,3′:4,5]thieno[2,3-d]pyrimidin-4-yl)-6-meth-yl-1,4-oxazepan-6-ol] | 7.58 | – | 7.63 | – | – | 7.19 | 6.59 | 7.04 | 7.13
11 | Cc1cc2[nH]ncc2c(-c2nccc3c2sc2nc(OC[C@@]45CCCN4C[C@H](F)C5)nc(N4CCOC[C@@](C)(O)C4)c23)c1C1CC1(F)F (stereo partly drawn) [Ex-63, (6S)-4-(8-(5-(2,2-difluorocyclopropyl)-6-methyl-1H-indazol-4-yl)-2-(((2R,7aS)-2-fluorotetrahydro-1H-pyrrolizin-7a(5H)-yl)methoxy)pyrido[4′,3′:4,5]thi-eno[2,3-d]pyrimidin-4-yl)-6-methyl-1,4-oxazepan-6-ol] | 7.41 | 6.73 | 7.71 | 6.92 | 6.94 | 7.26 | – | – | –
12 | C[C@@]1(O)COCCN(c2nc(OC[C@@]34CCCN3C[C@H](F)C4)nc3sc4c(-c5c6c(cc7[nH]ncc57)CCC65CC5)nccc4c23)C1 [Ex-88, (6S)-4-(8-(6,7-dihydro-1H-spiro[cyclopenta[f]indazole-5,1′-cyclopropan]-4-yl)-2-(((2R,7aS)-2-fluorotetrahydro-1H-pyrrolizin-7a(5H)-yl)methoxy)pyrido[4′,3′:4,5]thi-eno[2,3-d]pyrimidin-4-yl)-6-methyl-1,4-oxazepan-6-ol] | 7.37 | 6.80 | 7.73 | 7.44 | 6.92 | 7.43 | – | – | –
13 | C[C@@]1(O)COCCN(c2nc(OC[C@@]34CCN3C[C@H](F)C4)nc3sc4c(-c5c(C6CC6)c(Cl)cc6[nH]ncc56)nccc4c23)C1 (single isomer, unassigned) [Ex-221] | 7.67 | – | 8.26 | – | – | 7.64 | 6.76 | 7.10 | 7.09
14 | CC1(O)COCCN(c2nc(OCC3(CN4CC5C(F)C5C4)CC3(F)F)nc3sc4c(-c5c(C6CC6)c(Cl)cc6[nH]ncc56)nccc4c23)C1 [Ex-214, (6S)-4-(8-(6-chloro-5-cyclopropyl-1H-indazol-4-yl)-2-(((R)-2,2-difluoro-1-(((1R,5S,6R)-6-fluoro-3-azabicyclo [3.1.0]hexan-3-yl)-methyl)cycloprop-yl)methoxy)pyrido [4′,3′:4,5]thieno[2,3-d]pyrimidin-4-yl)-6-methyl-1,4-oxaze-pan-6-ol] | 6.61 | – | 7.20 | – | – | 6.30 | 6.87 | 6.97 | 6.77
